Legend:
Nannochloropsis [1] = experiment: outdoor open pond cultivation with chlorine addition (condition four)
Experimental: Chlorine compounds may be added directly to the cultivation vessel. They may be added to the water of dilution of the cultivation vessel. In either case they may be added in solid (granular) form, liquid form, or as chlorine gas. In experiments performed by the inventors, the chlorine was added as a liquid (e.g., sodium hypochlorite). Typically, 10-12% solutions of sodium hypochlorite were diluted 10 to 100 fold and added directly to the cultivation reactor to achieve the initial concentration of sodium hypochlorite cited in each case.
(§1) In the following examples, Nannochloropsis was grown in outdoor, open, ponds in Vero Beach, Fla. The climate in Vero Beach is semitropical, with mild winters and hot, humid summers. It is a challenging climate for keeping outdoor algal cultures stable and productive. The overnight warmth encourages predation by protozoa, rotifers, and crustaceans. The humidity allows the airborne transport of competing algae, and thus increases the rate of invasion. In some of the examples the techniques applied were successful in keeping Nannochloropsis as the dominant alga, at ninety-five percent (95%) to nearly one-hundred percent (100%) of the algal biomass, even when competitors and/or predators were intentionally introduced to the algae cultivation system. In some cases, predators were undetectable most of the time, even after they were intentionally introduced.
Ten ponds (four 1.4 square meter, four 3 square meter, and two approximately 200 square meter) were used to test many conditions of salinity and chlorination over fifteen months. Not all of the conditions were run for that whole time period. The results from the following seven conditions are summarized below: 1) 35-36 PPT (full) seawater salinity, 2) 28-30 PPT (dilution of full seawater with fresh water in a ratio of 3:1), 3) 22-24 PPT (dilution of full seawater with fresh water in a ratio of about 2:1), 4) condition no. 3 with chlorine added to the pond every other day to an initial concentration of sodium hypochlorite of 3 ppm, 5) 10-12 PPT (dilution of full seawater with fresh water in a ratio of about 1:2), 6) 5-7 PPT (dilution of full seawater with fresh water in a ratio of about 1:6. and 7) about 1 PPT (dilution of seawater with fresh water in a ratio of about 1:40).
Condition four was run from Oct. 4, 2007 until Jun. […] Commercial chlorine solutions were added to the algae cultivation systems every other day to obtain an initial concentration of 2.5-3 mg of sodium hypochlorite. […] The Nannochloropsis was cultivated without interruption and at greater than 95% dominance, throughout the entire cultivation period (over eight months). […] Species added included Tetraselmis and Dunaliella, along with amoeba, protozoa, and crustaceans. The Tetraselmis and Dunaliella cultures were decimated by the predators. The predators were not observable in the Nannochloropsis cultures after a few days.

[2] = test system: predators (amoeba, protozoa, and crustaceans); experiment: outdoor open pond cultivation with chlorine addition: growth of introduced predators; settings: 2.5-3 mg every other day, 22-24 PPT
Experimental: as §1
Ten ponds (four 1.4 square meter, four 3 square meter, and two approximately 200 square meter) were used to test many conditions of salinity and chlorination over fifteen months. Not all of the conditions were run for that whole time period. The results from the following seven conditions are summarized below: 1) 35-36 PPT (full) seawater salinity, 2) 28-30 PPT (dilution of full seawater with fresh water in a ratio of 3:1), 3) 22-24 PPT (dilution of full seawater with fresh water in a ratio of about 2:1), 4) condition no. […]

Nannochloropsis [3] = experiment: hypochlorite kill curve: dry biomass productivity of laboratory Nannochloropsis cultures; format: cell-based; settings: for Mean Productivity of Nannochloropsis: daily addition
Experimental: Algal cultivation: 800 ml cultures are maintained in one inch thick Roux flasks with continuous magnetic stirring. Continuous illumination at 700 MicroEinsteins per meter squared per second is provided by four 54-watt T5 fluorescent bulbs rated with a correlated color temperature of […]. 1% CO2 is bubbled through […] rate sufficient to maintain a pH between 7.0 and 8.5. Photoautotrophic growth is maintained on UFM media formulated with artificial seawater (35 g/L Instant Ocean) containing 720 mg/L urea, 168 mg/L K2HPO4, 1.5 ml/L of a metals solution and 1 ml/L of a vitamin solution. The metals solution contains 39.7 g/L Fe(III)Cl3(6H2O), 30.0 g/L EDTA, 1.2 g/L MnCl2(4H2O), 0.08 g/L CoCl2(6H2O), 0.16 g/L ZnSO4(7H2O), 0.067 g/L CuSO4(5H2O), 0.023 g/L Na2MoO4(2H2O). The vitamins solution contains 0.001 g/L vitamin B12, 0.001 g/L Biotin, and 0.2 g/L Thiamine. Cultures are diluted by exchanging 400 ml of culture with fresh media every day at the same time. From the 400 ml that are removed, the dry biomass concentration is determined as below. Determination of culture biomass concentration: A sample of the culture between 0.5 and five milliliters is vacuum filtered through a pre-rinsed and pre-ashed Whatman GF/C glass microfiber filter disc. The cake is rinsed with twenty milliliters of 0.7M ammonium formate and dried for at least 2 hours at 105° C. The dried sample is weighed on an analytical balance and then ashed at 550° C. for at least 1 hour. The post ash weight is subtracted from the pre-ash weight and divided by the volume of the sample to get the ash-free dry biomass density in milligrams per milliliter. Given the dilution volume and the previous day's dry biomass concentration, the current day's dry biomass concentration can be used to establish the culture's dry biomass productivity in grams per liter per day. This productivity value can then be compared across different experimental conditions. For the hypochlorite kill curve, four cultures are measured for productivity as above, each of which receives a different dose of sodium hypochlorite with the fresh media that is added at dilution time. The final concentration of sodium hypochlorite following dilution for each of the four cultures is 0, 20, 40 and 80 milligrams per liter.

OCl [sodium hypochlorite]
Nannochloropsis dominance throughout the cultivation period (Nannochloropsis [1]; 2.5-3 mg every other day, 22-24 PPT, over eight months): greater than 95%
contamination versus non-chlorinated cultures at the same salinity (Nannochloropsis [1]; 22-24 PPT, cooler months): no observable difference
contamination versus non-chlorinated cultures at the same salinity (Nannochloropsis [1]; 22-24 PPT, warmer months of the year): less contamination than non-chlorinated cultures
culture stability over the run (Nannochloropsis [1]; condition four, about 250 days): without stability problems
effect on productivity compared to condition three with no added chlorine (Nannochloropsis [1]; initial concentration 2.5-3 mg every other day, salinity 22-24 PPT): often had no effect on productivity
growth of predators added to the chlorinated cultures [2]: No predators were able to grow
survival of Nannochloropsis cultures after extremely high exposure (Nannochloropsis [3]; above 80 milligrams/liter, exposure not prolonged): recover
productivity of Nannochloropsis in the first two days following administration (Nannochloropsis [3]; at least 80 milligrams/liter): zero productivity
time for Nannochloropsis to recover after shock injection (Nannochloropsis [3]; shock amount, initial concentration 40-80 milligrams/liter or higher): two to three
Mean Productivity of Nannochloropsis (Nannochloropsis [3]; sodium hypochlorite 20 Milligrams/Liter): 570 Milligrams/Liter/Day
Mean Productivity of Nannochloropsis (Nannochloropsis [3]; sodium hypochlorite 40 Milligrams/Liter): 460 Milligrams/Liter/Day
Mean Productivity of Nannochloropsis (Nannochloropsis [3]; sodium hypochlorite 80 Milligrams/Liter): 0 Milligrams/Liter/Day

— patent US8940340B2, “Systems and methods for maintaining the dominance of Nannochloropsis in an algae cultivation system” (Aurora Algae, Inc., priority 2009, dated 2015)
